According to US7049292B2, “Therapeutically effective peptides related to preproinsulin” (King's College London, priority 2004, dated 2006):
Several values for one entry are separate records, joined by “and”; a condition that tells them apart may be missing. Identical values can stand only once. Like-named read-outs stand apart in the source and are kept apart here. Ends that are not written are not given here.

Legend:
[1] = tested on: pathogenic (IFN-γ) CD4+ T lymphocytes in PBMCs; test: IFN-γ ELISPOT analysis of PBMCs cultured with peptide; format: cell-based, human; conditions: for Prevalence of IFN-γ responses, Totals (%) / Prevalence of IFN-γ responses, Totals (responders/tested): positive response SI≧3.0; for IFN-γ response, stimulation index (SI): PBMCs, peptide 10 μM
[2] = tested on: anti-inflammatory (IL-10 secreting) CD4+ T lymphocytes in PBMCs; format: cell-based, human; conditions: for IL-10 response, stimulation index (SI): PBMCs, peptide 10 μM
[3] = T1DM patients with HLA-DR4 alleles
[4] = T1DM patients with non-DR4 alleles
[5] = patient #6, T1DM with HLA-DR4 alleles
[6] = patient #13, T1DM with HLA-DR4 alleles
[7] = patient #3, T1DM with HLA-DR4 alleles
[8] = patient #27, T1DM with non-DR4 alleles
[9] = patient #24, T1DM with HLA-DR4 alleles

Sequence | Prevalence of IFN-γ responses, Totals (%) [1, 3] | Prevalence of IFN-γ responses, Totals (responders/tested) [1, 3] | Prevalence of IFN-γ responses, Totals (%) [1, 4] | Prevalence of IFN-γ responses, Totals (responders/tested) [1, 4] | Prevalence of IFN-γ responses, Totals (%) ([1]; non-diabetic control subjects) | Prevalence of IFN-γ responses, Totals (responders/tested) ([1]; non-diabetic control subjects) | IFN-γ response, stimulation index (SI) [1, 5] | IFN-γ response, stimulation index (SI) [1, 6] | Prevalence of IL-10 responses, Totals (responders/tested) [2] | IL-10 response, stimulation index (SI) [2, 8] | other results
QPLALEGSLQKRGIVEQ [C22-A5] | (18) % | 3/17 | (25) % | 2/8 | (0) % | 0/14 | 22.0 | 3.3 | 1/12 and 1/5 and 1/13 | 3.0 | IFN-γ response, stimulation index (SI) ([1]; patient #5, T1DM with HLA-DR4 alleles): 3.7; IFN-γ response, stimulation index (SI) ([1]; patient #28, T1DM with non-DR4 alleles): 5.8; IFN-γ response, stimulation index (SI) ([1]; patient #29, T1DM with non-DR4 alleles): 4.0; IL-10 response, stimulation index (SI) ([2]; non-diabetic control subject C13): 4.3; IL-10 response, stimulation index (SI) [2, 7]: 7.36
SFYLKNVQTQETRTLTQFHF [853–72, IA-2 peptide eluted from HLA-DR4] | (28) % | 7/25 | (18) % | 2/11 | (7) % | 1/14 | 6.6 | 3.6 | 2/17 and 2/7 and 2/14 | 20.0 | IFN-γ response, stimulation index (SI) ([1]; non-diabetic control subject C9): 4.7; IFN-γ response, stimulation index (SI) ([1]; patient #1, T1DM with HLA-DR4 alleles): 10.0; IFN-γ response, stimulation index (SI) [1, 7]: 10; IFN-γ response, stimulation index (SI) ([1]; patient #9, T1DM with HLA-DR4 alleles): 5.2; IFN-γ response, stimulation index (SI) [1, 9]: 48.3; IFN-γ response, stimulation index (SI) [1, 8]: 3.1; IFN-γ response, stimulation index (SI) ([1]; patient #34, T1DM with non-DR4 alleles): 3.7; IL-10 response, stimulation index (SI) ([2]; non-diabetic control subject C5): 4.7; IL-10 response, stimulation index (SI) ([2]; non-diabetic control subject C8): 66.0; IL-10 response, stimulation index (SI) [2, 5]: 4.3; IL-10 response, stimulation index (SI) [2, 9]: 9.0; IL-10 response, stimulation index (SI) ([2]; patient #35, T1DM with non-DR4 alleles): 9.6
